# Laboratory results published in patent US12018258B2, “Mobile-CRISPRi plasmids and related methods” (CZ Biohub SF, LLC, priority 2019, dated 2024).
# Experiments:
# Klebsiella pneumoniae = conditions: MIC assay, n=3
# Description: (§1) MIC assays were performed using the broth microdilution method as previously described in Wiegand et al. Agar and broth dilution methods to determine the minimal inhibitory concentration (MIC) of antimicrobial substances. Nat. Protoc. 3, 163 (2008) (28), except that 0.1% arabinose (for P. aeruginosa) or 100 μM IPTG (for E. aerogenes) was added to induce dcas9 expression, and K. pneumoniae cultures were shaken to reduce clumping. Three biological replicates were grown for MIC assays. Growth curves shown in FIG. 3 were set up in exactly the same manner as the MIC assays, except that cultures were grown with agitation in a plate reader (BioTek) for ˜16 hrs. P-values for comparing MICs between control sgRNA and folA sgRNA strains were obtained using an unpaired two-tailed t-test with Welch's correction to account for unequal variances between samples and calculated using GraphPad Prism 7.0e.
# Enterobacter aerogenes = conditions: MIC assay, n=3
# Description: as §1
# [1] = system: pathogenic Gammaproteobacteria associated with antibiotic resistance
# Description: MIC assays were performed using the broth microdilution method as previously described in Wiegand et al. Agar and broth dilution methods to determine the minimal inhibitory concentration (MIC) of antimicrobial substances. […] 3, 163 (2008) (28), except that 0.1% arabinose (for P. aeruginosa) or 100 μM IPTG (for E. aerogenes) was added to induce dcas9 expression, and K. pneumoniae cultures were shaken to reduce clumping. Three biological replicates were grown for MIC assays. […] P-values for comparing MICs between control sgRNA and folA sgRNA strains were obtained using an unpaired two-tailed t-test with Welch's correction to account for unequal variances between samples and calculated using GraphPad Prism 7.0e.
smiles,measurement,setting,value
COc1cc(Cc2cnc(N)nc2N)cc(OC)c1OC [trimethoprim],sensitivity to trimethoprim after CRISPRi knockdown of folA,Klebsiella pneumoniae,increased sensitivity
same,sensitivity to trimethoprim after CRISPRi knockdown of folA,Enterobacter aerogenes,increased sensitivity
same,growth of the folA knockdown strains,"[1]; trimethoprim concentrations below the MIC for the wild type bacteria, data not shown",completely inhibited growth
same,shift of the minimal inhibitory concentration (MIC),[1]; {},2-4 fold
